For orientation: Ki means the equilibrium dissociation constant of an inhibitor or competing ligand from its target.

The structures appear in SMILES notation.

Test [1] deals with synaptosomes from the striatal area of rat brain. In words: [3H]-dopamine release from rat striatal synaptosomes. It counts as cell-based, Sprague-Dawley rats. As to conditions: 0.2 ml of a 20 μM solution of ligand, relative to an equal concentration of (S)-(-)-nicotine. How it is done:
Dopamine release was measured by preparing synaptosomes from the striatal area of rat brain obtained from Sprague-Dawley rats generally according to the procedures set forth by Nagy, et al., J. Neurochem., Vol. 43, pp. 1114-1123 (1984). Striata from 4 rats were homogenized in 2 ml of 0.32M sucrose buffered with 5 mM HEPES (pH 7.5), using a glass-teflon tissue grinder. The homogenate was diluted to 5 ml with additional homogenization solution and centrifuged at 1000×g for 10 min. This procedure was repeated on the new pellet and the resulting supernatant was centrifuged at 12,000×g for 20 min. […] Using this method, 30 to 90 percent of the dopamine was taken up into the synaptosomes, as determined by scintillation counting following filtration through glass fiber filters soaked with 0.5 percent polyethyleneimine. […] After the addition of a 0.2 ml of a 20 μM solution of ligand, the perfusate was collected into scintillation vials at 1 min. intervals and the dopamine released was quantified by scintillation counting. Peaks of radioactivity released above background were summed and the average basal release during that time was subtracted from the total. Release was expressed as a percentage of release obtained with an equal concentration of (S)-(-)-nicotine.

The target in test [2] is high affinity nicotinic receptors. In words: Inhibition of L-[3H]nicotine binding to mouse brain membrane preparations. Details: species or system Mice (DBA strain). The note with it: mouse brain membranes, 2 hr incubation at 4° C., 10 nM L-[3H]nicotine, Ki calculated from IC50 by the method of Cheng et al. How it is done:
Mice (DBA strain) were maintained on a 12 hour light/dark cycle and were allowed free access to water and food supplied by Wayne Lab Blox, Madison, Wis. Animals used in the present studies were 60 to 90 days of age and weighed 20 to 25 g. Brain membrane preparations were obtained from pooled brain tissue of both males and females.
Mice were killed by cervical dislocation. Brains were removed and placed on an ice-cold platform. […] Protein was determined by the method of Lowry, et al., J. Biol. Chem., Vol. 193, pp. 265-275 (1951), using bovine serum albumin as the standard.
The binding of L-[^3 H]nicotine was measured using a modification of the method of Romano, et al., Science, Vol. 210, pp. 647-650 (1980) as described previously by Marks, et al., Mol. Pharmacol., Vol. 30, pp. 427-436 (1986). The binding of L-[^3 H]nicotine was measured using a 2 hr. incubation at 4° C. […] Nonspecific binding was determined by inclusion of 10 μM nonradioactive nicotine in the incubations. The inhibition of L-[^3 H]nicotine binding by test compounds was determined by including one of eight different concentrations of the test compound in the incubation. […] Inhibition constants (Ki values) were calculated from the IC50 values using the method of Cheng, et al., Biochem. Pharmacol., Vol. 22, pp. 3099-3108 (1973). […]

`CN1C(=O)CC[C@H]1c1cccnc1` [cotinine]: the “Dopamine Release” value in test [1] was 20 Percent release relative to (S. In addition, the Ki in test [2] was 3.9 µM.
